We go through three compounds from patent US6566545B2, “Menthol derivatives and process for preparing the same” (Pacific Corporation, priority 2001, dated 2003).

The subject of series [1] is back of New Zealand White Rabbit. Nature of the series: Retinol-induced skin irritation on rabbit back, Draize Primary Irritation Index. Type of series: in vivo. As to conditions: for Irritation Index: Draize Primary Irritation Index, 0.01% agent applied with 1000 I.U. retinol as irritation source, twice a day, rabbit back skin; for Relative Ratio: irritation relative to blank applied only with retinol, 0.01% agent. The protocol: The hairs on the back of New Zealand White Rabbit were removed and fed with sufficient water and nutrition. At the areas of 1.5 cm×1.5 cm on the back of the rabbit, menthol, menthol 3-aminopropylphosphate (MPA) and 1000 I.U. of retinol as irritation source were applied respectively. The number of applying positions for each rabbit was 8˜10, and the agents were applied twice a day with 6 hours of time interval. The applied positions were exposed to air. Erythema, rash or edema was measured everyday after 48 hours has passed from the first apply during 1 week to observe the irritation. According to the “Primary Irritation Index” of Draize, the degree of irritation was determined. Relative irritation was calculated with the ratio to the blank sample that applied only with retinol, and the results are shown in Table 1 and FIG. 1.

The nature of series [2]: Solubility in aqueous and aqueous mixed solution. The source says:
To observe the solubility of the menthol 3-aminopropylphosphate in the aqueous phase, solubility were measure in aqueous and aqueous mixed solution.
Menthol was used as relativity group.

The next series concerns phosphatase. As to the kind of experiment: Hydrolysis by phosphatase in phosphoric buffer pH 7.4, HPLC. Type of series: in vitro ADME. As to conditions: 3-aminopropylphosphoric acid measured by HPLC (FIG. 2). How it is done:
To clarify the activity of menthol 3-aminopropylphosphate obtained in Example 2, the hydrolysis of the menthol 3-aminopropylphosphate by a phosphatase in the skin was observed. That is, the preparation of menthol and 3-aminopropylphosphoric acid by the hydrolysis was observed.
3-aminopropylphosphate and phosphatase were added to phosphoric buffer solution with pH 7.4, then, hydrolysis was performed. The phosphatase used above was Alkaline Phosphate manufactured by SIGMA, Co., Ltd.
The amount of the 3-aminopropylphosphoric acid prepared by the hydrolysis was measured by means of HPLC, and the results are shown in FIG. 2.

`C[C@]12CCC(=O)C=C1CC[C@@H]1[C@@H]2[C@@H](O)C[C@@]2(C)[C@H]1CC[C@]2(O)C(=O)CO` [hydrocortisone]: in series [1], the “Irritation Index” value worked out at 5.10 and the “Relative Ratio” value is reported as 0.53.

Turning to `CC1CCC(C(C)C)C(OP(=O)(O)OCCCN)C1` (stereo not drawn) [menthol 3-aminopropyl phosphate, Menthol 3-Aminopropylphosphate], the solubility in series [2] (H2O) is recorded as 0.3%; in series [2] (H2O:1,3-BG = 1:1), 5%; in series [2] (H2O:Ethanol = 1:1), 6%; in series [2] (H2O:Ethanol = 5:1) it was 1%. Besides, the “aqueous solubility compared with menthol” value in series [2] (in words) was “increased very much compared with menthol itself”. The hydrolysis by phosphatase entry with phosphatase was “hydrolyzed by the phosphatase of the skin and formed menthol and 3-aminopropylphosphoric”. Also, in series [1], the “Irritation Index” value worked out at 6.07. Further, in series [1], the “Relative Ratio” value is on record as 0.63.

Consider `CC1CCC(C(C)C)C(O)C1` (stereo not drawn) [menthol], for which, in series [1], the “Irritation Index” value is given as 9.34 and the “Relative Ratio” value was found to be 0.97.
